row,SMILES,melting point
1,"CC(C)c1cccc(C(C)C)c1NC(=O)CN1CCCN(CCCSc2nc3cccc(C(F)(F)F)c3o2)CC1 [Example 91, 2-[4-[3-(7-trifluoromethylbenzoxazol-2-ylthio)propyl]homopiperazin-1-yl]-N-(2,6-diisopropylphenyl)acetamide]",77 to 79 °C
2,CCCCCCCN(CCN1CCN(CCCSc2nc3ccccc3o2)CC1)C(=O)Nc1c(SC)cc(C)nc1SC.Cl.Cl,208 to 210 °C
3,"CC(C)c1ccc(N(C)C)c(C(C)C)c1NC(=O)CN1CCN(CCSc2nc3ccccc3o2)CC1 [Example 59, 2-[4-[2-(benzoxazol-2-ylthio)ethyl]piperazin-1-yl]-N-(2,6-diisopropyl-3-dimethylaminophenyl)acetamide]",159 to 161 °C
4,"CCCCCCCN(CCN1CCN(CCSc2nc3cccc(C(=O)OC)c3o2)CC1)C(=O)Nc1c(C(C)C)cccc1C(C)C [Example 17, N′-(2,6-diisopropylphenyl)-N-heptyl-N-[2-[4-[2-(7-methoxycarbonylbenzoxazol-2-ylthio)-ethyl]piperazin-1-yl]ethyl]urea]",125 to 126 °C
5,Cc1cc(SC(C)C)c(NC(=O)CN2CCN(CCSc3nc4ccccc4s3)CC2)c(SC(C)C)n1.Cl.Cl,139 to 142 °C
6,"CCOCCOc1cc(C(C)C)c(NC(=O)CN2CCN(CCCSc3nc4ccccc4o3)CC2)c(C(C)C)c1 [Example 120, 2-[4-[3-(benzoxazol-2-ylthio)propyl]piperazin-1-yl]-N-[2,6-diisopropyl-4-(2-ethoxyethyloxy)phenyl]acetamide]",115 to 117 °C
7,"CC(C)c1cc(O[C@@H]2O[C@H](CO)[C@@H](O)[C@H](O)[C@H]2O)cc(C(C)C)c1NC(=O)CN1CCN(CCSc2nc3cccc(C(F)(F)F)c3o2)CC1 [Example 134, 2-[4-[2-(7-trifluoromethylbenzoxazol-2-ylthio)ethyl]piperazin-1-yl]-N-[2,6-diisopropyl-4-(β-D-glucopyranosyl)oxyphenyl]acetamide]",130 to 133 °C
8,"CC(C)c1ccc(OS(C)(=O)=O)c(C(C)C)c1NC(=O)CN1CCN(CCSc2nc3ccccc3o2)CC1 [Example 62, 2-[4-[2-(benzoxazol-2-ylthio)ethyl]-piperazin-1-yl]-N-(2,6-diisopropyl-3-mesyloxyphenyl)acetamide]",164 to 166 °C (dec.)
9,"CC(C)c1ccc([N+](=O)[O-])c(C(C)C)c1NC(=O)CN1CCN(CCSc2nc3cccc(C(F)(F)F)c3o2)CC1 [Example 87, 2-[4-[2-(7-trifluoromethylbenzoxazol-2-ylthio)ethyl]piperazin-1-yl]-N-(2,6-diisopropyl-3-nitrophenyl)acetamide]",115 to 117 °C
10,"CCOC(=O)COc1cc(C(C)C)c(NC(=O)CN2CCN(CCSc3nc4ccccc4o3)CC2)c(C(C)C)c1 [Example 77, 2-[4-[2-(benzoxazol-2-ylthio)ethyl]piperazin-1-yl]-N-[2,6-diisopropyl-4-ethoxycarbonylmethyloxyphenyl)acetamide]",118 to 120 °C
11,"Cc1cc(C)c(NC(=O)CN2CCN(CCSc3nc4ccccc4o3)CC2)c(C)n1 [Example 47, 2-[4-[2-(benzoxazol-2-ylthio)ethyl]piperazin-1-yl]-N-(2,4,6-trimethyl-3-pyridyl)acetamide]",159 to 160 °C
12,"CC(C)c1cc(CO)cc(C(C)C)c1NC(=O)CN1CCN(CCSc2nc3cccc(C(F)(F)F)c3o2)CC1 [Example 140, 2-[4-[2-(7-trifluoromethylbenzoxazol-2-ylthio)ethyl]piperazin-1-yl]-N-[2,6-diisopropyl-4-hydroxymethylphenyl]acetamide]",146 to 148 °C
13,"CCSc1cc(C)nc(SCC)c1NC(=O)CN1CCN(CCSc2nc3ccccc3o2)CC1 [Example 34, 2-[4-[2-(benzoxazol-2-ylthio)ethyl]piperazin-1-yl]-N-[2,4-bis(ethylthio)-6-methyl-3-pyridyl]acetamide]",108 to 109 °C
14,CC(C)c1cc(OC(=O)[C@H](C)N)cc(C(C)C)c1NC(=O)CN1CCN(CCSc2nc3cccc(C(F)(F)F)c3o2)CC1.O=C(O)C(F)(F)F.O=C(O)C(F)(F)F.O=C(O)C(F)(F)F,124 to 126 °C
15,"CSc1ncnc(SC)c1NC(=O)CN1CCN(CCSc2nc3ccccc3o2)CC1 [Example 46, 2-[4-[2-(benzoxazol-2-ylthio)ethyl]piperazin-1-yl]-N-[4,6-bis(methylthio)-5-pyrimidyl)acetamide]",171 to 172 °C
16,CCSc1cc(C)nc(SCC)c1NC(=O)CN1CCN(CCSc2nc3ncccc3o2)CC1.O=C(O)/C=C\C(=O)O.O=C(O)/C=C\C(=O)O,148 to 149 °C
17,"CSc1cc(C)nc(SC)c1NC(=O)CCN1CCN(CCSc2nc3ccccc3o2)CC1 [Example 27, 3-[4-[2-(benzoxazol-2-ylthio)ethyl]piperazin-1-yl]-N-[2,4-bis(methylthio)-6-methyl-3pyridyl]propanamide]",110 to 112 °C
18,"CC(C)c1cc([N+](=O)[O-])c(O)c(C(C)C)c1NC(=O)CN1CCN(CCSc2nc3ccccc3o2)CC1 [Example 66, 2-[4-[2-(benzoxazol-2-ylthio)ethyl]piperazin-1-yl]-N-(2,6-diisopropyl-3-hydroxy-4-nitrophenyl)acetamide]",139 to 141 °C
19,"CC(C)c1cccc(C(C)C)c1NC(=O)CCN1CCN(CCCSc2nc3ccccc3o2)CC1 [Example 23, 3-[4-[3-(benzoxazol-2-ylthio)propyl]piperazin-1-yl]-N-(2,6-diisopropylphenyl)propanamide]",93 to 95 °C
20,"CC(C)c1cccc(C(C)C)c1NC(=O)CN1CCCN(CCCSc2nc3ncccc3o2)CC1 [Example 15, 2-[4-[3-(oxazolo[4,5-b]pyridin-2-ylthio)propyl]homopiperazin-1-yl]-N-(2,6-diisopropylphenyl)acetamide]",73 to 75 °C
21,"CC(C)c1cccc(C(C)C)c1NC(=O)CN1CCN(CCCSc2nc3ccccc3s2)CC1 [Example 8, 2-[4-[3-(benzothiazol-2-ylthio)propyl]piperazin-1-yl]-N-(2,6-diisopropylphenyl)acetamide]",113 to 115 °C

# Now from value to compound:
row,melting point,SMILES
1,162 to 163 °C,"Cc1c(Cl)cc(C(C)C)c2oc(SCCN3CCN(CC(=O)Nc4c(C(C)C)cccc4C(C)C)CC3)nc12 [Example 97, 2-[4-[2-(5-chloro-7-isopropyl-4-methylbenzoxazol-2-ylthio)ethyl]piperazin-1-yl]-N-(2,6-diisopropylphenyl)acetamide]"
2,122 to 123 °C,"COc1cc(C(C)C)c(NC(=O)CN2CCN(CCSc3nc4cccc(C(F)(F)F)c4o3)CC2)c(C(C)C)c1 [Example 86, 2-[4-[2-(7-trifluoromethylbenzoxazol-2-ylthio)ethyl]piperazin-1-yl]-N-(2,6-diisopropyl-4-methoxyphenyl)acetamide]"
3,133 to 134 °C,"Cc1ccc(C(C)C)c2oc(SCCN3CCN(CC(=O)Nc4c(C(C)C)cccc4C(C)C)CC3)nc12 [Example 122, 2-[4-[2-(7-isopropyl-4-methylbenzoxazol-2-ylthio)ethyl]piperazin-1-yl]-N-(2,6-diisopropylphenyl)acetamide]"
4,135 to 137 °C (dec.),"CC(C)c1cccc(C(C)C)c1NC(=O)CN1CCN(CCSc2nc3cccc(C(F)(F)F)c3o2)CC1 [Example 85, 2-[4-[2-(7-trifluoromethylbenzoxazol-2-ylthio)ethyl]piperazin-1-yl]-N-(2,6-diisopropylphenyl)acetamide]"
5,126 to 127 °C,"COc1ccc(C(C)C)c(NC(=O)CN2CCN(CCCSc3nc4c(C)c(Cl)cc(C(C)C)c4o3)CC2)c1C(C)C [Example 110, 2-[4-[3-(5-chloro-7-isopropyl-4-methylbenzoxazol-2-ylthio)propyl]piperazin-1-yl]-N-(2,6-diisopropyl-3-methoxyphenyl)acetamide]"
6,126 to 129 °C (dec.),"COc1cc2oc(SCCN3CCN(CC(=O)Nc4c(C(C)C)cccc4C(C)C)CC3)nc2c(OC)c1OC [Example 98, 2-[4-[2-(4,5,6-trimethoxybenzoxazol-2-ylthio)ethyl]piperazin-1-yl]-N-(2,6-diisopropylphenyl)acetamide]"
7,153 to 155 °C,"CC(C)c1cccc(C(C)C)c1NC(=O)CN1CCN(CCSc2nc3cccc([N+](=O)[O-])c3o2)CC1 [Example 104, 2-[4-[2-(7-nitrobenzoxazol-2-ylthio)ethyl]-piperazin-1-yl]-N-(2,6-diisopropylphenyl)acetamide]"
8,160 to 163 °C,"CC(C)c1cc(C(C)C)c(NC(=O)CN2CCN(CCSc3nc4ccccc4o3)CC2)c(C(C)C)c1 [Example 48, 2-[4-[2-(benzoxazol-2-ylthio)ethyl]piperazin-1-yl]-N-(2,4,6-triisopropylphenyl)acetamide]"
9,105 to 107 °C,"COc1ccc(C(C)C)c(NC(=O)CN2CCN(CCCSc3nc4ccccc4o3)CC2)c1C(C)C [Example 70, 2-[4-[3-(benzoxazol-2-ylthio)propyl]piperazin-1-yl]-N-(2,6-diisopropyl-3-methoxyphenyl)acetamide]"
10,162 to 164 °C,"CC(C)c1cc(O)cc(C(C)C)c1NC(=O)CN1CCN(CCSc2nc3ccccc3o2)CC1 [Example 72, 2-[4-[2-(benzoxazol-2-ylthio)ethyl]piperazin-1-yl]-N-(2,6-diisopropyl-4-hydroxyphenyl)acetamide]"
11,185 to 186 °C,"COc1cc(C(C)C)c(NC(=O)CN2CCN(CCSc3nc4cccc(C(C)=O)c4o3)CC2)c(C(C)C)c1 [Example 93, 2-[4-[2-(7-acetylbenzoxazol-2-ylthio)ethyl]piperazin-1-yl]-N-(2,6-diisopropyl-4-methoxyphenyl)acetamide]"
12,129 to 130 °C,"COc1cc(C(C)C)c(NC(=O)CN2CCN(CCCSc3nc4ccccc4o3)CC2)c(C(C)C)c1 [Example 119, 2-[4-[3-(benzoxazol-2-ylthio)propyl]piperazin-1-yl]-N-(2,6-diisopropyl-4-methoxyphenyl)acetamide]"
13,181 to 183 °C,"CC(C)c1cccc(C(C)C)c1NC(=O)CN1CCN(CCSc2nc3cccc(-c4cc[nH]n4)c3o2)CC1 [Example 103, 2-[4-[2-[7-(pyrazol-3-yl)benzoxazol-2-ylthio]ethyl]piperazin-1-yl]-N-(2,6-diisopropylphenyl)acetamide]"
